The values below come from patent publication US7098231B2, “Viral polymerase inhibitors” (Boehringer Ingelheim International GmbH, priority 2003, dated 2006).

The target in this assay is T1, hepatitis C virus RNA dependent polymerase (NS5B) (Hepatitis C virus genotype 1b, UniProt P26663).
T1 construct: The C-terminal polyprotein cleavage product, NS5B, is the elongation subunit of the HCV replicase
T1 sequence (P26663 2420-3010): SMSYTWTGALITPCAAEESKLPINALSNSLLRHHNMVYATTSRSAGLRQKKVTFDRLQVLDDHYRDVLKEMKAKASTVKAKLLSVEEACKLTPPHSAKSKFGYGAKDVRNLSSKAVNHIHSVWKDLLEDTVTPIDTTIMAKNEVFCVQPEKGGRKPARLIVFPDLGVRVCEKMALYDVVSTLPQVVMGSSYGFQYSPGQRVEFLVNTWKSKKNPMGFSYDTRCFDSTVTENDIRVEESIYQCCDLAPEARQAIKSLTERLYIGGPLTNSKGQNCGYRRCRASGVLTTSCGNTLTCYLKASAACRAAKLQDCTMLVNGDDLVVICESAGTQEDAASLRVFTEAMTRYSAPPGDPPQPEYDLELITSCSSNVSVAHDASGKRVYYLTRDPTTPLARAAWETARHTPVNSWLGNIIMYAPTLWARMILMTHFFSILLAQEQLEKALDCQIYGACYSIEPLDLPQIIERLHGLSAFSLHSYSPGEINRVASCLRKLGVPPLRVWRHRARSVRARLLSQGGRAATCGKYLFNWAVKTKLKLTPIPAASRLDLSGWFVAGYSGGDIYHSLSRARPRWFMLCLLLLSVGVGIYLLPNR
The assay can be described thus: biochemical. As for the experimental part:
Inhibition of NS5B RNA Dependent RNA Polymerase Activity
The compounds of the invention were tested for inhibitory activity against the hepatitis C virus RNA dependent polymerase (NS5B), according to the protocol described in WO 03/010141.
A word on the IC50: it is the concentration that gives 50% inhibition. In the case of `Cn1c(-c2ccoc2)c(C2CCCCC2)c2cc(C(=O)NS(=O)(=O)c3ccccc3)ccc21` [compound 204], the IC50 lay in the range of 1 to 20 µM.

`COc1c(C(=O)NS(=O)(=O)c2ccccc2)ccc2c(C3CCCC3)c(-c3ccoc3)n(C)c12` [compound 202] yielded an IC50 of less than 1 µM.

`COc1c(C(=O)NS(C)(=O)=O)ccc2c(C3CCCC3)c(-c3ccoc3)n(C)c12` [compound 201]: the IC50 was less than 1 µM.

On to `Cn1c(-c2ccoc2)c(C2CCCCC2)c2cc(C(=O)NS(C)(=O)=O)ccc21` [compound 203], for which the IC50 was in the range of 1 to 20 µM.
